Reference: patent US20240408054A1, “COMPOSITIONS AND METHODS FOR […] OF R(-)-MDA” (priority 2023, published 2024)
Where two headings read alike, the source gives them in different places.

Key:
[1] = prior studies (Hysek 2012, 2014; Thompson 2007); cited from earlier work
[2] = other studies in healthy human subjects; cited from earlier work
[3] = racemic MDMA at 125 mg (FIG. 9); cited from earlier work
[4] = Self-Connectedness Scale / Self-Compassion Scale (SCS); assay type: in vivo, human; details: for Self-Connectedness Scale LSMean and 95% CI: change from baseline
Description: The Self-Compassion Scale (SCS) is a 12-item self-report measure that is used by adults to measure their capacity for self-compassion-the ability to hold one's feelings of suffering with a sense of warmth, connection and concern.

[5] = set-up: species or system human; details: in vivo
[6] = Multifaceted Empathy Test (MET); assay type: in vivo, human
Description: The Multifaceted Empathy Test (MET) measures cognitive empathy (CE), explicit emotional empathy (EEE) and implicit emotional empathy (IEE). Hurlemann R, et al., (2010) Oxytocin enhances amygdala-dependent, socially reinforced learning and emotional empathy in humans. J Neurosci 30:4999-5007.

[7] = Neuroendocrine effects (hormone concentrations); assay type: in vivo, human
[8] = 5-Dimensions-Altered States of Consciousness (5D-ASC); assay type: in vivo, human
Description: This is generally unexpected given the prior results that have been reported for MDMA. One notable finding from the assessment is the ratio of Oceanic Boundlessness (OB) to Dread of Ego Dissolution (DED), which are considered a useful metric. OB is positively correlated with psychedelic-mediated antidepressant efficacy while DED is negatively correlated. […] The OB-DED ratio is consistent with the 11-Dimensional Altered States of Consciousness (11D-ASC, see below).

[9] = Challenging Experiences Questionnaire (CEQ); assay type: in vivo, human; details: 6.5 hours post dosing
Description: Seven Challenging Experiences Questionnaire (CEQ) factors (grief, fear, death, insanity, isolation, physical distress, and paranoia) provide a phenomenological profile of challenging aspects of experiences with R(−)-MDMA.

[10] = Visual Analog Scale (VAS) subjective experience; assay type: in vivo, human
Description: Visual Analogue Scales (VAS) was used to measure subjective experience, including experiences such as Happy, Open, Loving, Close to Others, Sociable, and Lonely. […] Some signal increases were observable for acute increases in the VAS scores of Happy, Open, and Loving experiences, and an acute decrease associated with Lonely (FIG. 2). However, the degree of those signals was far less than previously reported signals for racemic MDMA. These effects for R(−)-MDMA were observable within the acute treatment phase and were dimished (relative to baseline) after 18 hours post-dosing. […] However, R(−)-MDMA did show a consistent pattern in the 225 mg cohort, with highest changes relative to baseline and with similar directionality as the effects reported for racemic MDMA.

[11] = Phase 1 clinical study: pharmacokinetics (plasma); assay type: in vivo, human
[12] = Phase 1 clinical study: safety and tolerability; details: healthy volunteers, single oral dose 75-225 mg
[13] = 11-Dimensions-Altered States of Consciousness (11D-ASC); assay type: in vivo, human
Description: The results of the 11D-ASC assessment further confirms the unexpected psychedelic-like response associated with R(−)-MDMA.

[14] = Emotional Breakthrough Inventory (EBI); assay type: in vivo, human; details: 75-225 mg
Description: Self-reported breakthrough responses included: facing emotionally difficult feelings that are usually pushed aside; experiencing resolution of a personal conflict or trauma; ability to explore challenging emotions and memories; having an emotional breakthrough; achieving a sense of closure on an emotional problem; achieving emotional release followed by sense of relief.

[15] = Depression Anxiety Stress Scale (DASS); assay type: in vivo, human; details: for DASS Anxiety Difference with Placebo and 95% CI / DASS Depression Difference with Placebo and 95% CI / DASS Stress Difference with Placebo and 95% CI / DASS Anxiety LSMean and 95% CI / DASS Depression LSMean and 95% CI / DASS Stress LSMean and 95% CI: Day 8; for DASS Anxiety LSMean and 95% CI / DASS Depression LSMean and 95% CI / DASS Stress LSMean and 95% CI: change from baseline
Description: The Depression Anxiety Stress Scale (DASS) is a 42-item self-report instrument for measuring depression, anxiety and tension/stress.

[16] = Spoken Intensity Rating Scale (SIRS); assay type: in vivo, human
[17] = any cohort compared with the placebo group
[18] = 75-225 mg, statistical significance at higher doses

For `CNC(C)Cc1ccc2c(c1)OCO2` (racemic) [racemic MDMA, 3,4-methylenedioxymethamphetamine], the oxytocin release [1] is given as 5-6 x, the “VAS Happy, Open, Loving, Close to Others, and Sociable” value [2] is given as “acute and substantial increases” and the 11D-ASC response profile [3] is given as “no visual hallucinations and little to no insightfulness”.
For `CN[C@H](C)Cc1ccc2c(c1)OCO2` [R(−)-MDMA], the “Self-Connectedness Scale Difference with Placebo and 95% CI” value ([4]; Day 2, 75 mg oral) was 0.14, the “Self-Connectedness Scale Difference with Placebo and 95% CI” value ([4]; Day 2, 125 mg oral) was 0.33 and the “Self-Connectedness Scale Difference with Placebo and 95% CI” value ([4]; Day 2, 175 mg oral) was 0.42. For the same compound, the “Self-Connectedness Scale Difference with Placebo and 95% CI” value ([4]; Day 2, 225 mg oral) was 0.26, the “SCS changes from baseline” value ([4]; Day 2 and Day 8) was “clear dose-dependent response with statistical significance at Day 8” and the “Self-Connectedness Scale Difference with Placebo and 95% CI” value ([4]; Day 8, 75 mg oral) was 0.37. The “Self-Connectedness Scale Difference with Placebo and 95% CI” value ([4]; Day 8, 125 mg oral) was 0.40, the “Self-Connectedness Scale Difference with Placebo and 95% CI” value ([4]; Day 8, 175 mg oral) was 0.41 and the “Self-Connectedness Scale Difference with Placebo and 95% CI” value ([4]; Day 8, 225 mg oral) was 0.52. For the same compound, the “Self-Connectedness Scale LSMean and 95% CI” value ([4]; Day 2, 75 mg oral) was 0.04, the “Self-Connectedness Scale LSMean and 95% CI” value ([4]; Day 2, 125 mg oral) was 0.23 and the “Self-Connectedness Scale LSMean and 95% CI” value ([4]; Day 2, 175 mg oral) was 0.32. The “Self-Connectedness Scale LSMean and 95% CI” value ([4]; Day 2, 225 mg oral) was 0.16, the “Self-Connectedness Scale LSMean and 95% CI” value ([4]; Day 8, 75 mg oral) was 0.08 and the “Self-Connectedness Scale LSMean and 95% CI” value ([4]; Day 8, 125 mg oral) was 0.12. The “Self-Connectedness Scale LSMean and 95% CI” value ([4]; Day 8, 175 mg oral) was 0.12, the “Self-Connectedness Scale LSMean and 95% CI” value ([4]; Day 8, 225 mg oral) was 0.24 and the “FERT mean happiness reaction time” value [5] was “reduction in the mean happiness reaction time”. For the same compound, the “FERT median reaction time” value [5] was “greater reduction in the median reaction time”, the “MET scores: CE positive, EEE all and EEE negative emotions” value ([6]; all cohorts) was “showed no changes from baseline compared to placebo in all cohorts” and the “MET LSmean scores: CE all, CE negative, EEE positive, IEE all, IEE positive, IEE negative emotions” value ([6]; near 3.5 hours) was “showed changes from baseline in a dose-dependent manner”. The “concentration of mature brain-derived neurotrophic factor” value [7, 17] was “no obvious change from baseline”, the concentration of oxytocin [7, 17] was “no obvious change from baseline” and the concentration of prolactin ([7]; compared with the placebo group) was “consistent increase”. The “ratio of Oceanic Boundlessness (OB) to Dread of Ego Dissolution (DED)” value ([8]; 175 mg cohort) was “very favorable ratio”, the “5D-ASC subcomponents and total score” value [8, 18] was “dose-dependent increase in all measured subcomponents” and the “CEQ changes from baseline” value [9] was “clear dose-dependent response with statistical significance at higher doses”. The “VAS scores for Close to Others and Sociable” value ([10]; all cohorts) was “showed no changes from baseline compared to placebo in all cohorts”, the “VAS scores for Happy, Open, Loving, and Lonely” value ([10]; compared to placebo control) was “showed changes from baseline (prior to treatment) in a dose-dependent manner” and the “systemic exposure (Cmax/AUC) to the active metabolite R(−)-MDA” value ([11]; after R(−)-MDMA dosing, at higher doses) was “increased with doses in a slightly less than dose-dependent manner”. For the same compound, the PK food effects ([11]; fasted cohorts versus one fed arm) was “No patterns in the data suggested any substantial PK food effects”, the “AUC0-24h compared to prior reports for total MDMA following racemic-MDMA dosing” value ([11]; plasma) was “substantially higher” and the “Systemic exposure (Cmax and AUC)” value ([11]; plasma, 75-225 mg oral) was “increase with increasing doses in a generally dose-dependent manner”. For the same compound, the “pharmacokinetics, dose dependence” value ([11]; plasma, 75-225 mg oral) was “dose-dependent pharmacokinetics”, the Peak body temperatures [12] was “fell within the normal range” and the “Treatment-related adverse events: headache” value [12] was 16.7%. For the same compound, the “Treatment-related adverse events: nausea” value [12] was 29.2%, the “serious or severe AEs” value [12] was “no serious or severe AEs” and the study discontinuations [12] was “no study discontinuations”. The tolerability [12] was “well-tolerated”, the “blood pressure and heart rate” value ([12]; limited dose dependency) was “Non-clinically significant increases” and the 11D-ASC response profile ([13]; 175 mg and 225 mg, compared with psilocybin) was “many similarities to that of psilocybin, with slightly less imagery and slightly more insightfulness”. The “11D-ASC subcomponents and total score” value [13, 18] was “dose-dependent increase in all measured subcomponents”, the EBI observations [14] was “clear dose-dependent response with statistical significance at higher doses” and the DASS anxiety ([15]; Day 8, compared to placebo) was “lowered anxiety at lower doses but increased anxiety at 225 mg compared to placebo”. The “DASS Anxiety Difference with Placebo and 95% CI” value ([15]; 75 mg oral) was −1.04, the “DASS Depression Difference with Placebo and 95% CI” value ([15]; 75 mg oral) was −0.15 and the “DASS Stress Difference with Placebo and 95% CI” value ([15]; 75 mg oral) was −0.93. The “DASS Anxiety Difference with Placebo and 95% CI” value ([15]; 125 mg oral) was −1.07, the “DASS Depression Difference with Placebo and 95% CI” value ([15]; 125 mg oral) was −0.26 and the “DASS Stress Difference with Placebo and 95% CI” value ([15]; 125 mg oral) was −0.91. The “DASS Anxiety Difference with Placebo and 95% CI” value ([15]; 175 mg oral) was −1.08, the “DASS Depression Difference with Placebo and 95% CI” value ([15]; 175 mg oral) was −0.03 and the “DASS Stress Difference with Placebo and 95% CI” value ([15]; 175 mg oral) was 1.11. For the same compound, the “DASS Anxiety Difference with Placebo and 95% CI” value ([15]; 225 mg oral) was 0.94, the “DASS Depression Difference with Placebo and 95% CI” value ([15]; 225 mg oral) was 1.29 and the “DASS Stress Difference with Placebo and 95% CI” value ([15]; 225 mg oral) was 1.68. For the same compound, the “DASS Anxiety LSMean and 95% CI” value ([15]; 75 mg oral) was −1.22, the “DASS Depression LSMean and 95% CI” value ([15]; 75 mg oral) was −1.03 and the “DASS Stress LSMean and 95% CI” value ([15]; 75 mg oral) was −2.57. The “DASS Anxiety LSMean and 95% CI” value ([15]; 125 mg oral) was −1.24, the “DASS Depression LSMean and 95% CI” value ([15]; 125 mg oral) was −1.14 and the “DASS Stress LSMean and 95% CI” value ([15]; 125 mg oral) was −2.54. The “DASS Anxiety LSMean and 95% CI” value ([15]; 175 mg oral) was −1.26, the “DASS Depression LSMean and 95% CI” value ([15]; 175 mg oral) was −0.91 and the “DASS Stress LSMean and 95% CI” value ([15]; 175 mg oral) was −0.52. For the same compound, the “DASS Anxiety LSMean and 95% CI” value ([15]; 225 mg oral) was 0.76, the “DASS Depression LSMean and 95% CI” value ([15]; 225 mg oral) was 0.41 and the “DASS Stress LSMean and 95% CI” value ([15]; 225 mg oral) was 0.05. For the same compound, the SIRS dose response ([16]; 75-225 mg oral) was “very strong dose response” and the “time of peak SIRS relative to plasma PK Tmax” value ([16]; each dose) was “much earlier than the plasma PK Tmax at each dose”.
